Laboratory results from patent US12624044B2, “SMARCA degraders and uses thereof” (Kymera Therapeutics, Inc., priority 2019, dated 2026).

Key:
Type in all cases: cell-based
SMARCA4 = molecular target: T1, SMARCA4 (Homo sapiens, UniProt P51532); test: SMARCA4 Western blot MV4-11 degradation; conditions: 24 h; for Dmax: MV4-11, MV4-11 cells, read-out: SMARCA4 WB MV411 degradation 24 h: Average Dmax %; for DC50: MV4-11 cells, read-out: SMARCA4 WB MV411 degradation 24 h: Average external-Abs DC50
T1 construct: SMARCA2 and SMARCA4 protein degradation in MV4-11 cells; endogenous in cells; host or cells: MV4-11
T1 sequence (P51532 whole entry): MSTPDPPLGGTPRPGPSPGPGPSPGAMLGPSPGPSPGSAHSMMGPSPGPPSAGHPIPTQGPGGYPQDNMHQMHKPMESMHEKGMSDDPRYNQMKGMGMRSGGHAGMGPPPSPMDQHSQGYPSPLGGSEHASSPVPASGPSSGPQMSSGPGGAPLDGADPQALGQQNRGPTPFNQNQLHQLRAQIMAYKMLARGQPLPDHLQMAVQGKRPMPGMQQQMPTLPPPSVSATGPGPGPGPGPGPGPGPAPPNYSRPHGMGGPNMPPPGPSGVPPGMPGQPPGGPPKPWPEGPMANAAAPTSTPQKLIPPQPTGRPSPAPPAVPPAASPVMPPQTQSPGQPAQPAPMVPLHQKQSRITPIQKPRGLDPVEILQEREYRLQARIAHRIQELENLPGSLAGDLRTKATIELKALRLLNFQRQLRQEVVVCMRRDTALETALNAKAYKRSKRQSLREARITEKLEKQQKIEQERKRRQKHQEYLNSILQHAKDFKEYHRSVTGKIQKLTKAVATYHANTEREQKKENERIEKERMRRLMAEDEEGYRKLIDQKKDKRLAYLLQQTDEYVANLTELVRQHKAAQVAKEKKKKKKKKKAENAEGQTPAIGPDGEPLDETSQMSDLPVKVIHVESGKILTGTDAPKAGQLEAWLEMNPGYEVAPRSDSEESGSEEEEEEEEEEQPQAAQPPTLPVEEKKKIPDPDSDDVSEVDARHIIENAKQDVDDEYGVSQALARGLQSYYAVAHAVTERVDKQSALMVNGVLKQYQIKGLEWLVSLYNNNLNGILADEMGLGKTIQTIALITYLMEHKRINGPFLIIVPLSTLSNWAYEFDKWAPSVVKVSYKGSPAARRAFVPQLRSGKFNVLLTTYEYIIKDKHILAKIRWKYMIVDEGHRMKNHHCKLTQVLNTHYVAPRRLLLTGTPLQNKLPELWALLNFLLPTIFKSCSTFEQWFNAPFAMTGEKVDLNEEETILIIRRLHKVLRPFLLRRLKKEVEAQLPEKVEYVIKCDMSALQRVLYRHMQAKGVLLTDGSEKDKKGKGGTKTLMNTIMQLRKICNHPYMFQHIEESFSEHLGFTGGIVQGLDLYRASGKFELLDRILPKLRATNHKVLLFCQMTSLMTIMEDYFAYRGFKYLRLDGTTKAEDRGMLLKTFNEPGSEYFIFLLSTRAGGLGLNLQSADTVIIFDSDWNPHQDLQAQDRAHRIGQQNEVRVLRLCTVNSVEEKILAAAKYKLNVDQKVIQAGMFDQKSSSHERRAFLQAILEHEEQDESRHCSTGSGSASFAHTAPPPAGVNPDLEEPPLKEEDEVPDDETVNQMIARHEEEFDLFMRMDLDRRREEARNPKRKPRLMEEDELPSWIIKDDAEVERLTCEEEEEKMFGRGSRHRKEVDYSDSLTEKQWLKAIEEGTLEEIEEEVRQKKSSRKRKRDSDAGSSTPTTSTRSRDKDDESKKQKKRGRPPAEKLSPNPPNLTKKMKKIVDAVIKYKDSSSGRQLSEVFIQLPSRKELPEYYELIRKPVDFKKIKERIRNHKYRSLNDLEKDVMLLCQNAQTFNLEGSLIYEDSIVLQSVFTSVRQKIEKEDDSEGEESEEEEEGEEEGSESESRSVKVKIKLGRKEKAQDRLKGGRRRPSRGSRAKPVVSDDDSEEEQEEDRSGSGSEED
Outline: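 MV4-11 cells treated with compound for 24 h, lysed in RIPA with protease/phosphatase inhibitors, and SMARCA2 and SMARCA4 (BRG1) levels assessed by Western blot with β-actin loading control and LI-COR fluorescent read-out. Maximal degradation (Dmax %) after 24 h binned into letter codes.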

SMARCA2 [1] = molecular target: T2, SMARCA2 (Homo sapiens, UniProt P51531); test: SMARCA2 Western blot MV4-11 degradation; conditions: 24 h; for Dmax: MV4-11, MV4-11 cells, read-out: SMARCA2 WB MV411 degradation 24 h: Average Dmax %; for DC50: MV4-11 cells, read-out: SMARCA2 WB MV411 degradation 24 h: Average external-Abs DC50
T2 sequence (P51531 whole entry): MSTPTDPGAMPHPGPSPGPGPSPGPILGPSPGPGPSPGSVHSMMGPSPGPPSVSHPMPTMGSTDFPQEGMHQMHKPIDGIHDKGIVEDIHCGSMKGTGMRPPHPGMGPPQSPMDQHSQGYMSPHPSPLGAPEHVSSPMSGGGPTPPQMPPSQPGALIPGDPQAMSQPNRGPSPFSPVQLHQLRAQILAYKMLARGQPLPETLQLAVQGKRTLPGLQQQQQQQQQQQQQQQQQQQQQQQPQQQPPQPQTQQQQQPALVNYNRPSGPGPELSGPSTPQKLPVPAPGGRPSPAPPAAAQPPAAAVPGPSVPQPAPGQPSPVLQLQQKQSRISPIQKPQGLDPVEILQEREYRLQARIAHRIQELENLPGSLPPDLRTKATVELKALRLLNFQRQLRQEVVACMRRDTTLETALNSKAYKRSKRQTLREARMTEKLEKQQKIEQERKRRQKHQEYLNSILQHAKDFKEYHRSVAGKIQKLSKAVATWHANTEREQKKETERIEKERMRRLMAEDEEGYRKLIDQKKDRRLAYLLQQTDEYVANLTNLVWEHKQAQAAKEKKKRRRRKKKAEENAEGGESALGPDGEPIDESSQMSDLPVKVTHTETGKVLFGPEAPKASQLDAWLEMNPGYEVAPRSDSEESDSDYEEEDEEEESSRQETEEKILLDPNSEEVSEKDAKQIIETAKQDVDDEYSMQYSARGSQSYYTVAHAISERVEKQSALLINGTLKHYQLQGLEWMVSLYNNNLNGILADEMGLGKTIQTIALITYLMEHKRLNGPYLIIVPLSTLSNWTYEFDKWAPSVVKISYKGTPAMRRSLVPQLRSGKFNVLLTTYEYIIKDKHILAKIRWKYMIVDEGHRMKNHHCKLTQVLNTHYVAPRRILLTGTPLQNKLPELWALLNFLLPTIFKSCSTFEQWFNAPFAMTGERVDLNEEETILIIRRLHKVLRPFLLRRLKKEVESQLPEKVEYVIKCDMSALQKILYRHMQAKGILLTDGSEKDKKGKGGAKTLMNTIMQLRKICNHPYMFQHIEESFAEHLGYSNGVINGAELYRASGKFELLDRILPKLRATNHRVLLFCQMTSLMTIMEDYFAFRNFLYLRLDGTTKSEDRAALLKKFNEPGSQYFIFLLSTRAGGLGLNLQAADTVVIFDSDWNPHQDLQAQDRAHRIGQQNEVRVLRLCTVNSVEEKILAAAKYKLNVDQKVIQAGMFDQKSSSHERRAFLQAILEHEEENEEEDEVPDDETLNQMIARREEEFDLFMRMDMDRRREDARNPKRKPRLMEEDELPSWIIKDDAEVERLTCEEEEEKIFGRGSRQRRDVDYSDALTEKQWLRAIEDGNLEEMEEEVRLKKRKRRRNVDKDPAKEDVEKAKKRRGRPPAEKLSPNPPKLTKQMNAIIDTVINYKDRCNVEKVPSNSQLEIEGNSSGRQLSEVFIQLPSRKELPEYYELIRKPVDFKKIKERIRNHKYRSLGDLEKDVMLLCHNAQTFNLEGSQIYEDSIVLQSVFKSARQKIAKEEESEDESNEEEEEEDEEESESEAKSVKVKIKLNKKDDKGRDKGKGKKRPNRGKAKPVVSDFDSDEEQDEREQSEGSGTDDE
Description: Cells were seeded into 6-well plates (MV4-11: 4×10^6 cells/well/1 ml) and 1 ml of 2× compound solution was added into the well to make the final concentration and the plates were mixed well and incubated for 24 hours (No cytotoxicity was observed). The cell were collected with media and spun at 3000 rpm for 5 minutes. The supernatant was aspirated and the well and the cells were washed with cold PBS once and combined for centrifugation again; the supernatant aspirated again. 200 ul pre-chilled RIPAlysis buffer (Boston BioProducts BP-115D) with protease/phosphatase inhibitor (Roche 05892791001/Roche 04906837001) was directly added into the tube to lyze the cells for 20 minutes on ice. The cell lysate were collected into EP tubes and spun at 13000 rpm for 20 minutes and 72 ul supernatant was transferred to a fresh EP tube containing 18 ul of 5× loading buffer (Beyotime Bio P0015) to make the loading samples. The samples were heated to 100° C. for 10 minutes and cooled to RT and microcentrifuged. 20 ul of samples were loaded onto SDS-PAGE gel (Novex, WG1402BOX) and the gel was run at 80 V for 20 minutes and 120 V for 1.5 hours. The samples were electrotransfer to a NC membrane using wet-transfer method with 250 mA for 2.5 hours. The membrane was blocked with LICOR blocking buffer (LI-COR, 927-50000) for 1 hour. The membrane was washed three times with TBST (CST #9997S), 5 minutes each. Incubation was performed with primary antibody prepared in blocking buffer with 0.1% Tween-20 (Solarbio, P8220) at 4° C. overnight (Anti-SMARCA2/BRM antibody (ab15597) 1:500; Anti-BRG1 antibody [EPR3912] (ab108318) 1:1000; Rabbit anti-Baf180 antibody [EPR15860] (Abcam, ab196022) 1:1000; mouse anti-beta-Actin (8H10D10) (CST #3700) 1:10000). The membrane was washed three times with TBST, 5 minutes each. Incubation with secondary antibody was performed for 1 hour at RT (anti-rabbit IgG (Licor, 926-32211) 1:5000; anti-mouse IgG (LI-COR, 926-68070) 1:5000). The membrane was washed three times with TBST, 5 minutes each and lastly the LiCOR was read.
The letter codes for the percentage of SMARCA degradation after 24 hours (Dmax %) include: A (>90% degradation), B (>70-90% degradation), C (50-70% degradation), and D (<50% degradation).

SMARCA2 [2] = molecular target: T2, SMARCA2; test: MSD SMARCA2 degradation in A549 cell line; conditions: 24 h; for Dmax: A549, A549 cells; for DC50: A549 cells, read-out: SMARCA2 MSD A549 degradation 24 h: Average external-Abs DC50
Outline: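 A549 cells treated 24 h with compound at final 0.152-1000 nM (3-fold series, DMSO control). Lysates analyzed by MSD immunoassay using anti-SMARCA2/BRM detection and SULFO-TAG secondary antibodies; maximal degradation (Dmax %) reported as letter bins.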

Structure (SMILES)	Dmax (SMARCA4) [%]	DC50 (SMARCA4) [nM]	Dmax (SMARCA2 [1]) [%]	DC50 (SMARCA2 [1]) [nM]	Dmax (SMARCA2 [2]) [%]	DC50 (SMARCA2 [2]) [nM]
Cn1c(=O)n(C2CCC(=O)NC2=O)c2cccc(C3CCC(N4CCC(n5cc(-c6cc(-c7ccccc7O)nnc6N)cn5)CC4)CC3)c21 (stereo not drawn) [I-321]	> 90	< 100	> 90	< 100	> 90	< 100
Cc1ncsc1-c1ccc(CNC(=O)[C@@H]2C[C@@H](O)CN2C(=O)[C@@H](NC(=O)C2CCC(CN3CCC(n4cc(-c5cc(-c6ccccc6O)nnc5N)cn4)CC3)CC2)C(C)(C)C)cc1 (stereo partly drawn) [I-327]	< 50	> 1000	> 90	< 100	> 90	100 to 500
Cc1ncsc1-c1ccc(CNC(=O)[C@@H]2C[C@@H](O)CN2C(=O)[C@@H](NC(=O)[C@H]2C[C@@H](N3CCC(c4cnc(N5C6CCC5CN(c5cc(-c7ccccc7O)nnc5N)C6)nc4)CC3)C2)C(C)(C)C)cc1 [I-349]	< 50	501 to 1000	70 to 90	< 100	> 90	100 to 500
Cc1ncsc1-c1ccc(CNC(=O)[C@@H]2C[C@@H](O)CN2C(=O)[C@@H](NC(=O)CN2CCN(C3CCC(c4cnc(N5C6CCC5CN(c5cc(-c7ccccc7O)nnc5N)C6)nc4)CC3)CC2)C(C)(C)C)cc1 (stereo partly drawn) [I-354, (2S,4R)-1-((2S)-2-(2-(4-(4-(2-(3-(3-amino-6-(2-hydroxyphenyl)pyridazin-4-yl)-3,8-diazabicyclo[3.2.1]octan-8-yl)pyrimidin-5-yl)cyclohexyl)piperazin-1-yl)acetamido)-3,3-dimethylbutanoyl)-4-hydroxy-N-(4-(4-methylthiazol-5-yl)benzyl)pyrrolidine-2-carboxamide]	> 90	< 100	> 90	< 100	> 90	< 100
Cc1ncsc1-c1ccc(CNC(=O)[C@@H]2C[C@@H](O)CN2C(=O)[C@@H](NC(=O)[C@H]2CC[C@H](Cc3cnc(N4C5CCC4CN(c4cc(-c6ccccc6O)nnc4N)C5)nc3)CC2)C(C)(C)C)cc1 [I-366, (2S,4R)-1-((2S)-2-((1r,4S)-4-((2-(3-(3-amino-6-(2-hydroxyphenyl)pyridazin-4-yl)-3,8-diazabicyclo[3.2.1]octan-8-yl)pyrimidin-5-yl)methyl)cyclohexane-1-carboxamido)-3,3-dimethylbutanoyl)-4-hydroxy-N-(4-(4-methylthiazol-5-yl)benzyl) pyrrolidine-2-carboxamide]	> 90	< 100	> 90	< 100	> 90	< 100
Cc1ncsc1-c1ccc(CNC(=O)[C@@H]2C[C@@H](O)CN2C(=O)[C@@H](NC(=O)[C@H]2CC3(C2)C[C@H](c2cnc(N4C5CCC4CN(c4cc(-c6ccccc6O)nnc4N)C5)nc2)C3)C(C)(C)C)cc1 (stereo partly drawn) [I-368]	> 90	< 100	> 90	< 100	> 90	< 100
Cc1ncsc1-c1ccc(CNC(=O)[C@@H]2C[C@@H](O)CN2C(=O)[C@@H](NC(=O)[C@H]2C[C@@]3(C2)C[C@H](c2cnc(N4C5CCC4CN(c4cc(-c6ccccc6O)nnc4N)C5)nc2)C3)C(C)(C)C)cc1 (stereo partly drawn) [I-369]	–	< 100	–	< 100	–	< 100
Cc1ncsc1-c1ccc(CNC(=O)[C@@H]2C[C@@H](O)CN2C(=O)[C@@H](NC(=O)[C@H]2CC[C@H](CN3CCC(c4cnc(N5C6CCC5CN(c5cc(-c7ccccc7O)nnc5N)C6)nc4)CC3)CC2)C(C)(C)C)cc1 [I-375]	50 to 70	501 to 1000	> 90	< 100	> 90	100 to 500
Cc1ncsc1-c1ccc(CNC(=O)[C@@H]2C[C@@H](O)CN2C(=O)[C@@H](NC(=O)[C@H]2CC[C@H](CCCCCN3CCC(Cn4cc(-c5cc(-c6ccccc6O)nnc5N)cn4)CC3)CC2)C(C)(C)C)cc1 [I-378]	> 90	< 100	> 90	< 100	> 90	100 to 500
